Results: patent US7973047B2, “Beta-Secretase modulators and methods of use” (Amgen Inc., priority 2010, dated 2011)
Like-named read-outs stand apart in the source and are kept apart here.

System: Aβ40 in conditioned medium of cells stably expressing Amyloid Precursor Protein (APP)
Test: BACE cell-based assay: Aβ40 in conditioned medium by sandwich ELISA
Conditions: unit inferred, read-out: Cell Assay
Outline: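 APP-stable cells grown 24 h in DMEM/10% FBS, then exposed to compounds for 24 h in a 10-point dose series starting at 100 or 10 μM, 0.1% DMSO final. Medium Aβ40 measured by pAb40/biotinylated 6E10 sandwich ELISA with Europium time-resolved fluorescence; IC50 from percent inhibition.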

[1] = cell based assay data of Table 4

Row | Molecule | IC50 [1] [nM] | IC50 (cell based assay data, Table 4) [nM]
1 | CC(=O)N[C@@H](Cc1cc(F)cc(F)c1)[C@H](O)CN[C@H]1CC2(CCC2)Oc2ncc(C(F)(F)F)cc21 [compound 700, N-((1S,2R)-1-((3,5-difluorophenyl)methyl)-2-hydroxy-3-(((4′S)-6′-(trifluoromethyl)-3′,4′-dihydrospiro[cyclobutane-1,2′-pyrano[2,3-b]pyridin]-4′-yl)amino)propyl)acetamide] | 1200 | –
2 | CC(=O)N[C@@H](Cc1cc(F)cc(F)c1)[C@H](O)CN[C@H]1CC2(CCC2)Oc2cc(F)c(N[C@@H]3CCOC3)cc21 [compound 803] | – | 116
3 | CC(=O)N[C@@H](Cc1cccc(F)c1)[C@H](O)CN[C@H]1CC2(CCC2)Oc2c1cc(CC(C)(C)C)nc2NCCN [compound 606] | 4.43 | –
4 | COCC(C)(C)Cc1cnc2c(c1)[C@@H](NC[C@@H](O)[C@H](Cc1ccc(F)cc1)NC(C)=O)CC1(CCC1)O2 [compound 581] | 137 | –
5 | CC[C@H](C)Cc1cnc2c(c1)[C@@H](NC[C@@H](O)[C@H](Cc1ccc(F)cc1)NC(C)=O)CC1(CCC1)O2 [compound 695] | 43.4 | –
6 | CC(=O)N[C@@H](Cc1ccc(F)cc1)[C@H](O)CN[C@H]1CC2(CCC2)Oc2ncc([C@H](F)C(C)C)cc21 [compound 552, N-((1S,2R)-3-(((4′S)-6′-((1R)-1-fluoro-2-methylpropyl)-3′,4′-dihydrospiro[cyclobutane-1,2′-pyrano[2,3-b]pyridin]-4′-yl)amino)-1-((4-fluorophenyl)methyl)-2-hydroxypropyl)acetamide] | 1260 | –
7 | COC(=O)c1ccc2c(c1)[C@@H](NC[C@@H](O)[C@H](Cc1cccc(C#N)c1)NC(=O)CN(C)C)CC1(CCC1)O2 [compound 728] | – | 43.9
8 | CC(=O)N[C@@H](Cc1cc(F)cc(Cl)c1)[C@H](O)CN[C@H]1CC2(CCC2)Oc2ncc(CC(C)(C)C)cc21 [compound 567] | 3.27 | –
9 | CC(=O)N[C@@H](Cc1c(F)cc(F)cc1F)[C@H](O)CN[C@H]1CC2(CCC2)Oc2ncc(CC(C)(C)C)cc21 [compound 813] | – | 100
10 | C=CCC[C@H](NC(C)=O)[C@H](O)CN[C@H]1C[C@]2(C[C@H](C)C2)Oc2ncc(CC(C)(C)C)cc21 [compound 717, N-((1S)-1-((1R)-2-(((1s,3R,4′S)-6′-(2,2-dimethylpropyl)-3-methyl-3′,4′-dihydrospiro[cyclobutane-1,2′-pyrano[2,3-b]pyridin]-4′-yl)amino)-1-hydroxyethyl)-4-penten-1-yl)acetamide] | – | 52.5
11 | CC(=O)N[C@@H](Cc1cc(F)cc(F)c1)[C@H](O)CN[C@H]1CC2(CCC2)Oc2ccc(-c3ncco3)cc21 [compound 544] | 631 | –
12 | CC(=O)N[C@@H](Cc1cc(F)cc(F)c1)[C@H](O)CN[C@H]1CC2(CCC2)Oc2ccc(-c3cn(C)nn3)cc21 [compound 520] | 2160 | –
13 | CC(=O)N[C@@H](Cc1cccc(F)c1)[C@H](O)CN[C@H]1CC2(CCC2)Oc2ncc(C(O)C(C)C(F)(F)F)cc21 (stereo partly shown) [compound 863] | – | 1830
14 | CC#CC[C@H](NC(C)=O)[C@H](O)CN[C@H]1CC2(CCC2)Oc2ncc(CC(C)(C)C)cc21 [compound 705, N-((1S)-1-((1R)-2-(((4′S)-6′-(2,2-dimethylpropyl)-3′,4′-dihydrospiro[cyclobutane-1,2′-pyrano[2,3-b]pyridin]-4′-yl)amino)-1-hydroxyethyl)-3-pentyn-1-yl)acetamide] | 433 | –
15 | CC(=O)N[C@@H](Cc1ccccc1Br)[C@H](O)CN[C@H]1CC2(CCC2)Oc2ncc(CC(C)(C)C)cc21 [compound 810] | – | 197
16 | CC(=O)N[C@@H](Cc1ccc(F)cc1)[C@H](O)CN[C@H]1CC2(CCC2)Oc2c1cc(CC(C)(C)C)nc2NC(C)C [compound 585] | 22.3 | –
17 | CC(=O)N[C@@H](Cc1cccc(C(F)(F)F)c1)[C@H](O)CN[C@H]1CC2(CCC2)Oc2ncc(CC(C)(C)F)cc21 [compound 838] | – | 13.3
18 | CC(=O)N[C@@H](Cc1ccc(Cl)cc1)[C@H](O)CN[C@H]1C[C@@]2(CC[C@@H]2C)Oc2ncc(CC(C)(C)C)cc21 [compound 626] | ≥ 10000 | –
19 | CC(=O)N[C@@H](Cc1cc(F)cc(F)c1)[C@H](O)CN[C@H]1CC2(CCC2)Oc2ccc(-c3ccn(CC(C)C)n3)cc21 [compound 780] | – | 1650
20 | CC(=O)N[C@@H](Cc1cccc(F)c1)[C@H](O)CN[C@H]1CC(C)(C)Oc2cnc(CC(C)(C)C)cc21 [compound 798] | – | 6.72
21 | CC(=O)N[C@@H](Cc1ccc(F)cc1)[C@H](O)CN[C@H]1CC2(CCC2)Oc2c1cc(CC(C)(C)C)nc2Cl [compound 583] | 112 | –
22 | COC1CN(c2nc(CC(C)(C)C)cc3c2OC2(CCC2)C[C@@H]3NC[C@@H](O)[C@H](Cc2ccc(F)cc2)NC(C)=O)C1 [compound 614] | 59 | –

Row | Molecule | IC50 [1] [nM] | IC50 (cell based assay data, Table 4) [nM]
23 | CC(=O)N[C@@H](Cc1cc(F)cc(F)c1)[C@H](O)CN[C@H]1CC2(CCC2)Oc2nc(F)c(CC(C)C)cc21 [compound 853] | – | 11.2
24 | CC(=O)N[C@@H](Cc1ccc(F)cc1)[C@H](O)CN[C@H]1CC2(CCC2)Oc2ncc([C@H](F)C(C)(C)C)cc21 [compound 675] | 12.1 | –
25 | CC(=O)N[C@@H](Cc1cc(F)cc(NC2CCOCC2)c1)[C@H](O)CN[C@H]1CC2(CCC2)Oc2ncc(CC(C)(C)C)cc21 [compound 805] | – | 5.14
26 | CNc1nc(CC(C)(C)C)cc2c1OC(C)(C)C[C@@H]2NC[C@@H](O)[C@H](Cc1ccc(F)c(F)c1)NC(C)=O [compound 760] | – | 11.3
27 | CC(=O)N[C@@H](Cc1ccccc1)[C@H](O)CN[C@H]1CC2(CCC2)Oc2ccc(-c3ccn(C)n3)cc21 [compound 783] | – | 3240
28 | CC(=O)N[C@@H](Cc1ccnc(Cl)c1)[C@H](O)CN[C@H]1CC2(CCC2)Oc2ncc(CC(C)(C)C)cc21 [compound 642, N-((1S,2R)-1-((2-chloro-4-pyridinyl)methyl)-3-(((4′S)-6′-(2,2-dimethylpropyl)-3′,4′-dihydrospiro[cyclobutane-1,2′-pyrano[2,3-b]pyridin]-4′-yl)amino)-2-hydroxypropyl)acetamide] | 3.37 | –
29 | CC(=O)N[C@@H](Cc1cc(F)c(F)c(Cl)c1)[C@H](O)CN[C@H]1CC2(CCC2)Oc2ncc(CC(C)(C)C)cc21 [compound 869] | – | 17.9
30 | CCc1cc(Br)c2c(c1)[C@@H](NC[C@@H](O)[C@H](Cc1cccc(C#N)c1)NC(C)=O)CC(C)(C)O2 [compound 529] | 33.9 | –
31 | N-((1S,2R)-3-(((4′S)-6′-(2,2-dimethylpropyl)-3′,4′-dihydrospiro[cyclopropane-1,2′-pyrano[2,3-b]pyridin]-4′-yl)amino)-1-((4-fluoro-3-methylphenyl)methyl)-2-hydroxypropyl)acetamide [compound 550] | 20.3 | –
32 | [N-]=[N+]=NCC(=O)N[C@@H](Cc1ccccc1)[C@H](O)CN[C@H]1CC2(CCC2)Oc2ccc(Br)cc21 [compound 698] | 2380 | –
33 | CC(=O)N[C@@H](Cc1ccc(F)cc1)[C@H](O)CN[C@@H]1CC2(CCCC2)C(=O)c2ccc(CC(C)(C)C)cc21 [compound 564, N-((1S,2R)-3-(((4′R)-6′-(2,2-dimethylpropyl)-1′-oxo-3′,4′-dihydro-1′H-spiro[cyclopentane-1,2′-naphthalen]-4′-yl)amino)-1-((4-fluorophenyl)methyl)-2-hydroxypropyl)acetamide] | 569 | –
34 | CC(=O)N[C@@H](Cc1cc(F)cc(F)c1)[C@H](O)CN[C@H]1CC(C)(C)Oc2ncc(CC(C)(C)C)cc21 [compound 573] | 3.12 | –
35 | CC(=O)N[C@@H](Cc1ccc(Cl)c(Cl)c1)[C@H](O)CN[C@H]1CC2(CCC2)Oc2ncc(CC(C)(C)C)cc21 [compound 711, N-((1S,2R)-1-((3,4-dichlorophenyl)methyl)-3-(((4′S)-6′-(2,2-dimethylpropyl)-3′,4′-dihydrospiro[cyclobutane-1,2′-pyrano[2,3-b]pyridin]-4′-yl)amino)-2-hydroxypropyl)acetamide] | 29.6 | –
36 | CC(=O)N[C@@H](Cc1cc(F)cc(F)c1)[C@H](O)CN[C@H]1CC2(CCC2)Oc2ncc(CC(C)(C)F)cc21 [compound 835] | – | 2.05
37 | CC(=O)N[C@@H](Cc1ccc(F)cc1)[C@H](O)CN[C@H]1CC2(CCCC2)C(=O)c2ccc(CC(C)(C)C)cc21 [compound 563, N-((1S,2R)-3-(((4′S)-6′-(2,2-dimethylpropyl)-1′-oxo-3′,4′-dihydro-1′H-spiro[cyclopentane-1,2′-naphthalen]-4′-yl)amino)-1-((4-fluorophenyl)methyl)-2-hydroxypropyl)acetamide] | ≥ 10000 | –
38 | CC(=O)N[C@@H](Cc1ccc(Cl)cc1)[C@H](O)CN[C@H]1CC2(CCCC2)Oc2ncc(CC(C)(C)C)cc21 [compound 817] | – | 132
39 | CC(=O)N[C@@H](Cc1cccc(C#N)c1)[C@H](O)CN[C@H]1CC(C)(C)Cc2ncc(C)cc21 [compound 543] | 124 | –
40 | CC(=O)N[C@@H](Cc1ccc(F)c(C)c1)[C@H](O)CN[C@H]1CC2(CCC2)Oc2ncc(CC(C)(C)C)cc21 [compound 575] | 4.64 | –
41 | CC(=O)N[C@@H](Cc1ccc(Cl)cc1)[C@H](O)CN[C@H]1C[C@]2(CCOC2)Oc2ncc(CC(C)(C)C)cc21 [compound 670, N-((1S,2R)-1-((4-chlorophenyl)methyl)-3-(((3R,4′S)-6′-(2,2-dimethylpropyl)-3′,4,4′,5-tetrahydrospiro[furan-3,2′-pyrano[2,3-b]pyridin]-4′-yl)amino)-2-hydroxypropyl)acetamide] | 51.8 | –
42 | CC(=O)N[C@@H](Cc1ccc(F)c(F)c1)[C@H](O)CN[C@H]1CC2(CCC2)Oc2ncc(CC(F)(F)F)cc21 [compound 842] | – | 106
43 | CC(=O)N[C@@H](Cc1cccc(F)c1)[C@H](O)CN[C@H]1CC2(CCC2)Nc2ccc(CC(C)(C)C)cc21 [compound 561, N-((1S,2R)-3-(((4′S)-6′-(2,2-dimethylpropyl)-3′,4′-dihydro-1′H-spiro[cyclobutane-1,2′-quinolin]-4′-yl)amino)-1-((3-fluorophenyl)methyl)-2-hydroxypropyl)acetamide] | 29.4 | –
